Reference: patent US20250326771A1, “PIPERAZINE DERIVATIVES USEFUL IN HIV THERAPY” (VIIV HEALTHCARE COMPANY, priority 2022, published 2025)

Key:
[1] = biological target: cIAP1-BIR2 (Homo sapiens (Human), UniProt Q13490); assay: BIR binding assay (FRET competition), cIAP1 BIR2
Description: (§1) The BIR domain binding assays are FRET based competition assays that utilize His-tagged versions of each of the BIR2 and BIR3 domains from cIAP1, cIAP2, and XIAP (each domain assayed separately) each at a custom optimal concentration and a probe, 200 nM SMAC/DIABLO peptide […] labelled with AlexaFluor647 (part #crb 1110326h, Discovery Peptides). The assay is conducted in 50 mM HEPES, […], 1 mM CHAPS, 5% Glycerol, 1 mM DTT, in dI water with a final pH of 7.4 and final volume of 20 uL. Final protein domain concentrations are: 50 nM cIAP1-BIR3 (Part #APT-11-370 Reaction Biology), 100 nM XIAP-BIR3 (Part #APT-11-351 Reaction Biology), 200 nM XIAP-BIR2 (Part #APT-11-470 Reaction Biology), 325 nM cIAP2-BIR2 (Part #APT-11-489 Reaction Biology), 50 nM cIAP2-BIR3 (Part #APT-11-372 Reaction Biology), 325 nM cIAP1-BIR2 (Part #APT-11-487 Reaction Biology). Compounds were plated using a HP Tecan D300 printer in a final total volume of 202 nl and DMSO concentration normalized across the 15-point, 3-fold dilution series. Peptide and probe were prepared at 2× relative to the concentrations above in binding buffer, 10 uL added to the prepared compound plates, and incubated for 60 minutes. LANCE Eu-W1024 (part #AD0401 Perkin Elmer #, vendor) was prepared at 2× concentration in binding buffer for final concentration of 2 nM, 10 uL added to each well, and plates incubated for 30 minutes. Plates were read on an ENVISION multifunction plate reader with […] laser excitation to obtain the 615 nm/665 nm emission ratio as indicative of probe:protein proximity. Data was analyzed using GraphPad PRISM and curves fit using log(inhibitor) vs. response—Variable slope (four […] method to obtain IC50 and pIC50 values.

[2] = biological target: cIAP2-BIR3 (Homo sapiens (Human), UniProt Q13489); assay: BIR binding assay (FRET competition), cIAP2 BIR3
Sequence of cIAP2-BIR3 (Q13489 238-349): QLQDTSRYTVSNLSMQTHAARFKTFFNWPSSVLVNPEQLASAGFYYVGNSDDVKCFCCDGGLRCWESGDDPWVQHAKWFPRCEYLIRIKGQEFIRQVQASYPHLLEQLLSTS
Description: as §1

[3] = test system: Jurkat HIV-luciferase clones; assay: Jurkat latency reversal assay; type: cell-based; details: Homo sapiens, 48 h; Jurkat latency reversal assay potency; read-out: Jurkat pEC50 (converted)
Description: Jurkat HIV-luciferase clones were maintained in RPMI medium 1640 (Gibco by Life Technologies) containing 10% (vol/vol) fetal bovine serum (SAFC/Sigma-Aldrich) and 25 units/mL penicillin, 25 units/mL streptomycin (Gibco by Life Technologies), and were split 1:4 every 3 to 4 days to maintain a cell density of ˜0.3 to 1 million cells/mL. The Jurkat clones were maintained with the addition of 500 nM EFV in the medium. Three Jurkat cell clones (C16, 115, and N6), each harboring one or two integrated HIV proviruses expressing the luciferase reporter gene, were added at equal amounts for a total of 5,000 cells per well to 384-well plates containing compound titrations. Dose-response testing was performed on compounds dissolved in dimethyl sulfoxide (DMSO; Fisher Scientific, Merelbeke, Belgium) dispensed in duplicate serial 3-fold, 14-point titrations using a D300e Digital Droplet Dispenser (Hewlett-Packard) to give final assay concentrations of 10 μM to […] in 50 μL of medium at 0.5% DMSO (vol/vol) final concentration. Cells and compound were incubated at 37° C. for 48 hours, unless otherwise indicated, followed by the addition of 20 μL of Steady-Glo® Luciferase (Promega). Luminescence resulting from the induction of the virally expressed luciferase was measured using an EnVision 2102 Multilabel Plate Reader (Perkin Elmer). Dose-response relationships were analyzed with GraphPad PRISM 6 using a four-parameter logistic regression model to calculate the concentration of compound that gives half-maximal response (EC50) and the maximal percent activation compared to the vehicle control.

[4] = biological target: XIAP-BIR3 (Homo sapiens (Human), UniProt P98170); assay: BIR binding assay (FRET competition), XIAP BIR3
Sequence of XIAP-BIR3 (P98170 241-356): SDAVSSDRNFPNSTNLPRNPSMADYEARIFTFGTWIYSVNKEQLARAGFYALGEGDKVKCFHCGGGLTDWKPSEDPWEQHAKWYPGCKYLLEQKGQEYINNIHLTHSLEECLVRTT
Description: as §1

[5] = biological target: cIAP1-BIR3 (Homo sapiens (Human), UniProt Q13490); assay: BIR binding assay (FRET competition), cIAP1 BIR3; details: for cIAP1 BIR3 vs BIR2 separation window: fold separation (FS) for cIAP1
Sequence of cIAP1-BIR3 (Q13490 253-363): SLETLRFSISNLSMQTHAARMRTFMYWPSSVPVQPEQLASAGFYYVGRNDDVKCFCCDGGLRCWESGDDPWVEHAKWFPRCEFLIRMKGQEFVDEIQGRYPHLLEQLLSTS
Description: as §1

[6] = biological target: cIAP2-BIR2 (Homo sapiens (Human), UniProt Q13489); assay: BIR binding assay (FRET competition), cIAP2 BIR2
Sequence of cIAP2-BIR2 (Q13489 158-242): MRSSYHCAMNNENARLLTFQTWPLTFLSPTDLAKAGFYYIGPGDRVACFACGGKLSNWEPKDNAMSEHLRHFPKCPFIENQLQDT
Description: as §1

Sequence of cIAP1-BIR2 (Q13490 173-257): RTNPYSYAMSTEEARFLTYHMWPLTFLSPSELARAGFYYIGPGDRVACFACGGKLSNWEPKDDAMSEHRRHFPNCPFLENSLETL

Row | SMILES | IC50 [1] | cIAP2 BIR3 (pIC50) ([2]; FRET competition binding) | EC50 [3] | XIAP BIR3 (pIC50) ([4]; FRET competition binding) | cIAP1 BIR3 (pIC50) ([5]; FRET competition binding) | cIAP1 BIR3 vs BIR2 separation window [5] | IC50 [2] | cIAP2 BIR3 vs BIR2 separation window ([2]; fold separation (FS) for cIAP2) | IC50 [6] | IC50 [4] | IC50 [5]
1 | C[C@@H]1CN(CC(=O)N2CC(C)(C)c3[nH]c(=O)c(Cc4ccc(F)cc4)cc32)[C@@H](CN2CCC[C@@H](NC(=O)CCCCCCCCCCCCC(=O)N[C@@H]3CCCN(C[C@H]4CN[C@H](C)CN4CC(=O)N4CC(C)(C)c5[nH]c(=O)c(Cc6ccc(F)cc6)cc54)C3)C2)CN1 [Example 46, N1,N^14-bis((R)-1-(((2R,5R)-1-(2-(6-(4-fluorobenzyl)-3,3-dimethyl-5-oxo-2,3,4,5-tetrahydro-1H-pyrrolo[3,2-b]pyridin-1-yl)-2-oxoethyl)-5-methylpiperazin-2-yl)methyl)piperidin-3-yl)tetradecanediamide] | 3160 to 10000 nM | ++ (7.80>pIC50>=7.50) | 63.1 to 316 nM | + (7.50>pIC50>=6.30) | ++ (7.80>pIC50>=7.50) | +++ (10,000>FS>1,000) |  |  |  |  | 
2 | Cc1cc(Cl)ccc1Cc1cc2c([nH]c1=O)C(C)(C)CN2C(=O)CN1C[C@@H](C)NC[C@@H]1CN1CCO[C@H](C(=O)NCc2ccc(CNC(=O)[C@@H]3CN(C[C@H]4CN[C@H](C)CN4CC(=O)N4CC(C)(C)c5[nH]c(=O)c(Cc6ccc(Cl)cc6C)cc54)CCO3)cc2)C1 [Compound 168, (2S,2′S)-N,N′-(1,4-phenylenebis(methylene)) bis(4-(((2R,5R)-1-(2-(6-(4-chloro-2-methylbenzyl)-3,3-dimethyl-5-oxo-2,3,4,5-tetrahydro-1H-pyrrolo[3,2-b]pyridin-1-yl)-2-oxoethyl)-5-methylpiperazin-2-yl)methyl)morpholine-2-carboxamide)] |  |  | 0.49 to 12.6 nM |  |  |  | 7.94 to 15.8 nM | ++ (1,000>FS>100) | 22.4 to 1000 nM | 31.6 to 501 nM | 15.8 to 31.6 nM
3 | Cc1ccc(Cc2cnc3c(c2)N(C(=O)CN2C[C@@H](C)NC[C@@H]2CN2CCO[C@H](COc4cccc(OC[C@@H]5CN(C[C@H]6CN[C@H](C)CN6CC(=O)N6CC(C)(C)c7ncc(Cc8ccc(C)cc8)cc76)CCO5)c4)C2)CC3(C)C)cc1 [Compound 148] | 10000 to 51300 nM |  | 12.6 to 63.1 nM |  |  | ++++ (FS>10,000) | 15.8 to 31.6 nM |  |  | 31.6 to 501 nM | 15.8 to 31.6 nM
4 | C[C@@H]1CN(CC(=O)N2CC(C)(C)c3ncc(Cc4ccc(Br)cc4)cc32)[C@@H](CN2CCO[C@H](COc3cccc(OC[C@@H]4CN(C[C@H]5CN[C@H](C)CN5CC(=O)N5CC(C)(C)c6ncc(Cc7ccc(Br)cc7)cc65)CCO4)c3)C2)CN1 [Compound 153] | 10000 to 51300 nM |  | 63.1 to 316 nM |  |  | +++ (10,000>FS>1,000) | 31.6 to 501 nM |  |  | 31.6 to 501 nM | 31.6 to 501 nM
5 | C[C@@H]1CN(CC(=O)N2CC(C)(C)c3ncc(Cc4ccc(Cl)cc4)cc32)[C@@H](CN2CCO[C@H](COc3cccc(OC[C@@H]4CN(C[C@H]5CN[C@H](C)CN5CC(=O)N5CC(C)(C)c6ncc(Cc7ccc(Cl)cc7)cc65)CCO4)c3)C2)CN1 [Compound 147] | 3160 to 10000 nM |  | 12.6 to 63.1 nM |  |  | +++ (10,000>FS>1,000) | 15.8 to 31.6 nM |  |  | 31.6 to 501 nM | 15.8 to 31.6 nM
6 | C[C@@H]1CN(CC(=O)N2CC(C)(C)c3[nH]c(=O)c(Cc4ccc(F)cc4)cc32)[C@@H](CN2CCO[C@H](COc3ccc(C(C)(C)c4ccc(C(C)(C)c5ccc(OC[C@@H]6CN(C[C@H]7CN[C@H](C)CN7CC(=O)N7CC(C)(C)c8[nH]c(=O)c(Cc9ccc(F)cc9)cc87)CCO6)cc5)cc4)cc3)C2)CN1 [Example 62, 1,1′-(2,2′-((3R,3′R,6R,6′R)-(((2S,2'S)-((((1,4-phenylenebis(propane-2,2-diyl))bis(4,1-phenylene))bis(oxy))bis(methylene))bis(morpholine-2,4-diyl))bis(methylene))bis(3-methylpiperazine-6,1-diyl))bis(acetyl))bis(6-(4-fluorobenzyl)-3,3-dimethyl-1,2,3,4-tetrahydro-5H-pyrrolo[3,2-b]pyridin-5-one)] |  |  | 12.6 to 63.1 nM |  |  |  | 31.6 to 501 nM |  |  | 31.6 to 501 nM | 31.6 to 501 nM
7 | C[C@@H]1CN(CC(=O)N2CC(C)(C)c3[nH]c(=O)c(Cc4ccc(F)cc4)cc32)[C@@H](CN2CCO[C@H](COc3ccc(C(C)(C)c4cccc(C(C)(C)c5ccc(OC[C@@H]6CN(C[C@H]7CN[C@H](C)CN7CC(=O)N7CC(C)(C)c8[nH]c(=O)c(Cc9ccc(F)cc9)cc87)CCO6)cc5)c4)cc3)C2)CN1 (stereo in doubt) [Example 61, 1,1′-(2,2′-((3R,3′R,6R,6′R)-(((2S,2'S)-((((1,3-phenylenebis(propane-2,2-diyl))bis(4,1-phenylene))bis(oxy))bis(methylene))bis(morpholine-2,4-diyl))bis(methylene))bis(3-methylpiperazine-6,1-diyl))bis(acetyl))bis(6-(4-fluorobenzyl)-3,3-dimethyl-1,2,3,4-tetrahydro-5H-pyrrolo[3,2-b]pyridin-5-one)] |  |  | 12.6 to 63.1 nM |  |  |  | 31.6 to 501 nM |  |  | 31.6 to 501 nM | 31.6 to 501 nM
8 | C[C@@H]1CN(CC(=O)N2CC(C)(C)c3[nH]c(=O)c(Cc4ccc(F)cc4)cc32)[C@@H](CN2CCO[C@H](COc3ccc(Cc4ccc(OC[C@@H]5CN(C[C@H]6CN[C@H](C)CN6CC(=O)N6CC(C)(C)c7[nH]c(=O)c(Cc8ccc(F)cc8)cc76)CCO5)cc4)cc3)C2)CN1 [Example 53, 1,1′-(2,2′-((3R,3′R,6R,6′R)-(((2S,2'S)-(((methylenebis(4,1-phenylene))bis(oxy))bis(methylene))bis(morpholine-2,4-diyl))bis(methylene))bis(3-methylpiperazine-6,1-diyl))bis(acetyl))bis(6-(4-fluorobenzyl)-3,3-dimethyl-1,2,3,4-tetrahydro-5H-pyrrolo[3,2-b]pyridin-5-one)] |  |  | 12.6 to 63.1 nM |  |  |  | 31.6 to 501 nM |  |  | 31.6 to 501 nM | 31.6 to 501 nM
9 | C[C@@H]1CN(CC(=O)N2CC(C)(C)c3ncc(Cc4ccc(F)cc4)cc32)[C@@H](CN2CCN(S(=O)(=O)c3cccc(S(=O)(=O)N4CCN(C[C@H]5CN[C@H](C)CN5CC(=O)N5CC(C)(C)c6ncc(Cc7ccc(F)cc7)cc65)[C@H](C)C4)c3)C[C@H]2C)CN1 [Example 36, 2,2′-((3R,3′R,6R,6′R)-(((2R,2′R)-(1,3-phenylenedisulfonyl)bis(2-methylpiperazine-4,1-diyl))bis(methylene))bis(3-methylpiperazine-6,1-diyl))bis(1-(6-(4-fluorobenzyl)-3,3-dimethyl-2,3-dihydro-1H-pyrrolo[3,2-b]pyridin-1-yl)ethan-1-one)] | 3160 to 10000 nM |  | 0.49 to 12.6 nM |  |  | +++ (10,000>FS>1,000) | 15.8 to 31.6 nM |  |  | 31.6 to 501 nM | 15.8 to 31.6 nM
10 | C[C@@H]1CN(CC(=O)N2CC(C)(C)c3ncc(Cc4ccc(C(F)(F)F)cc4)cc32)[C@@H](CN2CCO[C@H](COc3cccc(OC[C@@H]4CN(C[C@H]5CN[C@H](C)CN5CC(=O)N5CC(C)(C)c6ncc(Cc7ccc(C(F)(F)F)cc7)cc65)CCO4)c3)C2)CN1 [Compound 149] | 10000 to 51300 nM |  | 63.1 to 316 nM |  |  | +++ (10,000>FS>1,000) | 31.6 to 501 nM |  |  | 31.6 to 501 nM | 31.6 to 501 nM
